Results as given in article PMC6053381, “Novel 2-phenyloxypyrimidine derivative induces apoptosis and autophagy via inhibiting PI3K pathway and activating MAPK/ERK signaling in hepatocellular carcinoma cells” (Scientific Reports, 2018).

Tests used:
HepG2 cells = assay: Colony formation assay; assay type: cell-based; conditions: 0–20 μM, 24 h treatment, two weeks culture
Experimental: (§1) Cells (300/well) were seeded in 24-well plates and incubated overnight in a humidified atmosphere of 5% CO2 at 37 °C. Incremental concentrations of E5 (0–20 μM) were then added, and the medium was replaced with fresh culture medium containing 10% FBS after 24 h. After two weeks of culture, colonies were fixed with methanol, stained with 1% crystal violet and colonies containing more than 50 cells were counted.

Bel7404 cells = assay: Colony formation assay; assay type: cell-based; conditions: 0–20 μM, 24 h treatment, two weeks culture
Experimental: as §1

PDGFRβ = PDGFRβ (Homo sapiens, UniProt P09619); assay: PDGFR kinase assay, Caliper microfluidic mobility shift; assay type: biochemical; conditions: averages of two separate experiments
Chain of PDGFRβ (P09619 33-1106): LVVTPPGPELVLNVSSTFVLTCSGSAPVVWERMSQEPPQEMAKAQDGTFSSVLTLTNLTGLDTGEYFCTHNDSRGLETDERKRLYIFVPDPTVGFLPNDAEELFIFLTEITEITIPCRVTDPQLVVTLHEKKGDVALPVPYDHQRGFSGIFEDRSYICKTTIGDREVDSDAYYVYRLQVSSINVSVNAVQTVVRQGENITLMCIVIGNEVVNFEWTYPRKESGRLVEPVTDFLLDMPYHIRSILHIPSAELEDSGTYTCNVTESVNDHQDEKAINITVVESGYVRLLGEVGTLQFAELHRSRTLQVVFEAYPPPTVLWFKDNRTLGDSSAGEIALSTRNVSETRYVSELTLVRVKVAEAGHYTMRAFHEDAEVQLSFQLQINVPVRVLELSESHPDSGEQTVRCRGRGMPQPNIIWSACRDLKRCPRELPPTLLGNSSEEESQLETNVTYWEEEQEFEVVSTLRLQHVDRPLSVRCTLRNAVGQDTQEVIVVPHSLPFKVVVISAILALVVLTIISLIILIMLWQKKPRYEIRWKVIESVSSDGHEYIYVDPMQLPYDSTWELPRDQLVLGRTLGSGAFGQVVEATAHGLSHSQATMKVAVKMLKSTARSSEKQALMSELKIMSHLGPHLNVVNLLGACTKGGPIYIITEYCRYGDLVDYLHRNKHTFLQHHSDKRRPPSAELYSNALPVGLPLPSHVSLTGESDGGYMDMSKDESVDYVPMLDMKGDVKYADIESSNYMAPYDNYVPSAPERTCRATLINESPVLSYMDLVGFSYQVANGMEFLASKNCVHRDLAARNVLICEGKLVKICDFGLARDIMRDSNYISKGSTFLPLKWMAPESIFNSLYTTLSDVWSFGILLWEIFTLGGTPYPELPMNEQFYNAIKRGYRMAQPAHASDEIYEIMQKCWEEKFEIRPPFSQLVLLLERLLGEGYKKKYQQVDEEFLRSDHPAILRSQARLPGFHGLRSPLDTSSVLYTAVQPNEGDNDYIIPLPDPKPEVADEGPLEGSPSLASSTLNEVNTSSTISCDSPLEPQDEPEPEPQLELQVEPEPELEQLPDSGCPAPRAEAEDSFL
Experimental: (§2) In vitro inhibitory activities of all compounds at 1 μM against PDGFRα and PDGFRβ were evaluated using Caliper microfluidic mobility shift technology. […] At the same concentration, only E5 inhibited greater than 50% of PDGFRβ activity (Fig. 2B).
(§3) PDGFR kinase activity was measured using Caliper microfluidic mobility shift technology. Briefly, 2 μL compound solution (25 μM) in 25% DMSO per well were added into the 384 well microtiter plates. Then, 10 μL per well of enzyme solution (100 mM HEPES, 10 mM MgCl2, Brij35 (30%) 100 μL, 1 mM DTT, 20 ng enzyme) was added. After a brief centrifugation at 1,000 rpm, the kinase reactions were started by addition of 38 μL per well of peptide/ATP-solution (40 μM ATP, 6.5 μM peptide 5′-FAM-KKKKEEIYFFF-NH2, Tris-HCl buffer, pH 7.0) incubated at 30 °C for 60 min and stopped by the addition of 20 μL 35 mM EDTA per well. The electrophoretic separation of the phosphorylated and non-phosphorylated peptides was then carried out on LabChip EZ Reader II (Caliper Life Sciences). All other kinase reactions were carried out as previously reported using the Kinase-Glo Plus or ADP-Glo assay. Kinase inhibition rates were calculated per manufacturer’s instructions.

PDGFRα = PDGFRα (Homo sapiens, UniProt P16234); assay: as above; assay type: biochemical
Chain of PDGFRα (P16234 24-1089): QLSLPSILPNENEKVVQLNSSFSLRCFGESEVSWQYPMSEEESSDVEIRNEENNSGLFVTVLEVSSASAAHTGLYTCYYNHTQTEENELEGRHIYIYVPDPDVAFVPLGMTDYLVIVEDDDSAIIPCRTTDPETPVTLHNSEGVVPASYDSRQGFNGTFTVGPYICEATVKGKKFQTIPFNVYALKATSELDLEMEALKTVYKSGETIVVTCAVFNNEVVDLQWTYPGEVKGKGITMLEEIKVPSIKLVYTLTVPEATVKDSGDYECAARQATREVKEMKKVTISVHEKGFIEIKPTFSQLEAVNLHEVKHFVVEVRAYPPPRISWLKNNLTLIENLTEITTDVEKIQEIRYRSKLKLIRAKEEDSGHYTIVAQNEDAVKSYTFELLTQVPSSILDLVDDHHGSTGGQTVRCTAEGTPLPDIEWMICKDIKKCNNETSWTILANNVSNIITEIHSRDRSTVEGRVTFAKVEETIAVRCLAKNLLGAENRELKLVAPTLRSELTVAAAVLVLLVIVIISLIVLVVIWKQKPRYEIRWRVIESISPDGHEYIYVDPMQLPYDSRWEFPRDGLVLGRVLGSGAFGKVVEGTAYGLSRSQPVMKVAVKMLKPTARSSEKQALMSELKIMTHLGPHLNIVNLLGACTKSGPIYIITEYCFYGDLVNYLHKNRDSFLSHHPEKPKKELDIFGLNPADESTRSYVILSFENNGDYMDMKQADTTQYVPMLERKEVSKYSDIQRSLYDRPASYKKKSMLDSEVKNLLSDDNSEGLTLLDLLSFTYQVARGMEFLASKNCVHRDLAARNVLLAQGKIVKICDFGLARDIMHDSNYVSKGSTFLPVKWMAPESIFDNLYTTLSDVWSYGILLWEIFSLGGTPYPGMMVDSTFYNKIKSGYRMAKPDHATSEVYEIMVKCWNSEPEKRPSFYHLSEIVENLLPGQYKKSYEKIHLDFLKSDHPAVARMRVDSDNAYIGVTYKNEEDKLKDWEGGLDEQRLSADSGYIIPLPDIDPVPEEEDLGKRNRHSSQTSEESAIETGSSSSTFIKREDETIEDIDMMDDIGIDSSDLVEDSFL
Experimental: as §2, §3

CSF1R = CSF1R (Homo sapiens, UniProt P07333); assay: Kinase profiling (Kinase-Glo Plus or ADP-Glo); assay type: biochemical; conditions: averages of two separate experiments
Chain of CSF1R (P07333 20-972): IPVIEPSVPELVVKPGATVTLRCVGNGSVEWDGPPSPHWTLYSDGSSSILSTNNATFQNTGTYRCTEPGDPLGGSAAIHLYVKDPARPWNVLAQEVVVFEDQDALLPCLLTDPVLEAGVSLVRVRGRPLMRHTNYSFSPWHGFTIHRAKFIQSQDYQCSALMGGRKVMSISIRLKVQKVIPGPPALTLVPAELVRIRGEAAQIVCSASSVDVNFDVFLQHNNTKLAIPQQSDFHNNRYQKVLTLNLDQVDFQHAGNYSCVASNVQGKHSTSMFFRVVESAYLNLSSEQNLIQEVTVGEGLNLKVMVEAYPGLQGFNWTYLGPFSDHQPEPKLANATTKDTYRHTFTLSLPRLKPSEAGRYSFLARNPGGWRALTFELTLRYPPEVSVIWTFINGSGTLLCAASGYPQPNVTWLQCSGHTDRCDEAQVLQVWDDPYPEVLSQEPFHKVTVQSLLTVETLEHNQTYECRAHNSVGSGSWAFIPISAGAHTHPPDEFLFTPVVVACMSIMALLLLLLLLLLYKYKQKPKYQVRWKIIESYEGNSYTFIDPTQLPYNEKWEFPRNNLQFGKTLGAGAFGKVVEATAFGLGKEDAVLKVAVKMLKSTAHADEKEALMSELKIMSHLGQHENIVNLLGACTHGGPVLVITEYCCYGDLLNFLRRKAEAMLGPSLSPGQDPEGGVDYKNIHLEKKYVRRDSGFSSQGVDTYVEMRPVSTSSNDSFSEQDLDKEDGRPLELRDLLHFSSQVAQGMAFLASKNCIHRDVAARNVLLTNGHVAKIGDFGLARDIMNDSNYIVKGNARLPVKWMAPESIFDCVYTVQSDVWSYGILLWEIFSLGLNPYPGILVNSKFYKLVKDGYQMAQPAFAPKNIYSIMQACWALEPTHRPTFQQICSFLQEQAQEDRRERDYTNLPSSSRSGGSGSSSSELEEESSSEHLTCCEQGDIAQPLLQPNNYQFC
Experimental: (§4) To better characterize kinase inhibition, the ability of E5 to inhibit a panel of purified kinases was assessed.
as §3

LCK = LCK (Homo sapiens, UniProt P06239); assay: Kinase profiling (Kinase-Glo Plus or ADP-Glo); assay type: biochemical; conditions: averages of two separate experiments
Experimental: as §4, §3

B-raf = B-raf (Homo sapiens, UniProt P15056); assay: Kinase profiling (Kinase-Glo Plus or ADP-Glo); assay type: biochemical; conditions: averages of two separate experiments
Experimental: as §4, §3

FLT3 = FLT3 (Homo sapiens, UniProt P36888); assay: Kinase profiling (Kinase-Glo Plus or ADP-Glo); assay type: biochemical; conditions: averages of two separate experiments
Chain of FLT3 (P36888 27-993, species assumed): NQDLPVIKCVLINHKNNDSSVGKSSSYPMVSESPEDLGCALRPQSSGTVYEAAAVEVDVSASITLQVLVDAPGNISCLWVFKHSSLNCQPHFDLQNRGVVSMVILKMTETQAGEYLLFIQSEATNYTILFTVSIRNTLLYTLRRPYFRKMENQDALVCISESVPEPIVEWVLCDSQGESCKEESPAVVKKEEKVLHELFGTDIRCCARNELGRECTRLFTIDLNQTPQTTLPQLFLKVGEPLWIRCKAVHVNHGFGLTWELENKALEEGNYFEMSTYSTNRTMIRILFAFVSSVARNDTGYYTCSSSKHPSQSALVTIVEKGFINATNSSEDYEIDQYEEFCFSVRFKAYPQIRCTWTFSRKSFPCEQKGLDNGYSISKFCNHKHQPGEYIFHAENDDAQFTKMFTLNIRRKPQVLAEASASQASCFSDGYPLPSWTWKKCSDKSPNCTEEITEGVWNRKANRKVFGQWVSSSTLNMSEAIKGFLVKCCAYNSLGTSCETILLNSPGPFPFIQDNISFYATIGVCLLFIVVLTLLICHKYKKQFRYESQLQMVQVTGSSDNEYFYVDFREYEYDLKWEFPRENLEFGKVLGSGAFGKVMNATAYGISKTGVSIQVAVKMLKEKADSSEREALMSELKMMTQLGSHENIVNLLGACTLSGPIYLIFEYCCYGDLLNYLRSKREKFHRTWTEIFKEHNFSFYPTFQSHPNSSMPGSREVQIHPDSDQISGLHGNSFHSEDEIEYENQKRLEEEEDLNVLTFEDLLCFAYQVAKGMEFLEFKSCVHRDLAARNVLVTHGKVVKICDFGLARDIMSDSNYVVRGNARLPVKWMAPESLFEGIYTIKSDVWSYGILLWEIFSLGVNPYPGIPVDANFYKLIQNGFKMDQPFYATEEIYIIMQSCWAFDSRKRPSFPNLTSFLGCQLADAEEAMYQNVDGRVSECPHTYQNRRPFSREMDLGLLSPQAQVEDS
Experimental: as §4, §3

BLK = BLK (Homo sapiens, UniProt P51451); assay: Kinase profiling (Kinase-Glo Plus or ADP-Glo); assay type: biochemical; conditions: averages of two separate experiments
Experimental: as §4, §3

FGFR1 = FGFR1 (Homo sapiens, UniProt P11362); assay: Kinase profiling (Kinase-Glo Plus or ADP-Glo); assay type: biochemical; conditions: averages of two separate experiments
Experimental: as §4, §3

ABL1 = ABL1 (Homo sapiens, UniProt P00519); assay: Kinase profiling (Kinase-Glo Plus or ADP-Glo); assay type: biochemical; conditions: averages of two separate experiments
Experimental: as §4, §3

EGFR = EGFR (Homo sapiens, UniProt P00533); assay: Kinase profiling (Kinase-Glo Plus or ADP-Glo); assay type: biochemical; conditions: averages of two separate experiments
Experimental: as §4, §3

c-KIT = c-KIT (Homo sapiens, UniProt P10721); assay: Kinase profiling (Kinase-Glo Plus or ADP-Glo); assay type: biochemical; conditions: averages of two separate experiments
Experimental: as §4, §3

FGFR2 = FGFR2 (Homo sapiens, UniProt P21802); assay: Kinase profiling (Kinase-Glo Plus or ADP-Glo); assay type: biochemical; conditions: averages of two separate experiments
Chain of FGFR2 (P21802 22-821, species assumed): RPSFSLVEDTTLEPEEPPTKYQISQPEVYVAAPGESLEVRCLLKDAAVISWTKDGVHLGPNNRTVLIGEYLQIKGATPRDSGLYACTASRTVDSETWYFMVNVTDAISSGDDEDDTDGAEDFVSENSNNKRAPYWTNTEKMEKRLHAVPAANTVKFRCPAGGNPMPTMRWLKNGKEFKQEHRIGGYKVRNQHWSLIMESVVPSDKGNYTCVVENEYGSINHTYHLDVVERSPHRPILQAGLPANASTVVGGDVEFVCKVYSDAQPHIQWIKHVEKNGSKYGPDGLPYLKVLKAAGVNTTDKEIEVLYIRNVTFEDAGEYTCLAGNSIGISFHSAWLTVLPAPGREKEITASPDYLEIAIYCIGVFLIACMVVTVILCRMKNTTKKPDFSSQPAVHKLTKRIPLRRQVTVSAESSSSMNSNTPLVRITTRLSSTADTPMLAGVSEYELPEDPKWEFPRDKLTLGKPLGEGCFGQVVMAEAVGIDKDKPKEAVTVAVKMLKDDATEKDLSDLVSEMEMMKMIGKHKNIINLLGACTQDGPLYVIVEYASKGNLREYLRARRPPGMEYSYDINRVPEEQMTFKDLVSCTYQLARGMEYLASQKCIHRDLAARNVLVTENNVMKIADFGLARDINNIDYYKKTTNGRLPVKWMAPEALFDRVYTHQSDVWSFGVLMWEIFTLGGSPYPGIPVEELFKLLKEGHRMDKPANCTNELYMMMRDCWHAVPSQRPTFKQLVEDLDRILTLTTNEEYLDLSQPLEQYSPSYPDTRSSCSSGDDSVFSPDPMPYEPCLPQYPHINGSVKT
Experimental: as §4, §3

ABL2 = ABL2 (Homo sapiens, UniProt P42684); assay: Kinase profiling (Kinase-Glo Plus or ADP-Glo); assay type: biochemical; conditions: averages of two separate experiments
Experimental: as §4, §3

Raf-1 = Raf-1 (Homo sapiens, UniProt P04049); assay: Kinase profiling (Kinase-Glo Plus or ADP-Glo); assay type: biochemical; conditions: averages of two separate experiments
Experimental: as §4, §3

For Cc1ccc(NC(=O)c2ccc(CN3CCN(C)CC3)cc2)cc1Oc1nccc(-c2cc3ccccc3o2)n1 [E5, N-(3-((4-(benzofuran-2-yl)pyrimidin-2-yl)oxy)-4-methylphenyl)-4-((4-methylpiperazin-1-yl)methyl)benzamide], the Effect on clonogenicity (HepG2 cells) was “significantly inhibited the clonogenicity”, the Effect on clonogenicity (Bel7404 cells) was “significantly inhibited the clonogenicity” and the IC50 (PDGFRβ) was 0.93 µM. For the same compound, the “IC50 PDGFRβ” value (PDGFRβ) was “moderate inhibitory activity”, the inhibition at 1 µM (PDGFRβ; compound at 1 µM, read-out: Inhibition effect (%) PDGFRβ) was > 50% and the Selectivity index (PDGFRα; IC50 (PDGFRβ)/ IC50 (PDGFRα)) was 2.32. For the same compound, the IC50 (PDGFRα; averages of two separate experiments) was 0.4 µM, the inhibition at 1 µM (PDGFRα; compound at 1 µM, averages of two separate experiments, read-out: Inhibition effect (%) PDGFRα) was > 85% and the IC50 (CSF1R) was 1.12 µM. The “IC50 CSF1R” value (CSF1R) was “moderate inhibitory activity”, the IC50 (LCK) was > 25 µM and the IC50 (B-raf) was > 25 µM. The IC50 (FLT3) was > 25 µM, the “IC50 FLT3” value (FLT3) was “no inhibition” and the IC50 (BLK) was > 25 µM. The IC50 (FGFR1) was > 25 µM, the IC50 (ABL1) was 9.35 µM and the IC50 (EGFR) was > 25 µM. The IC50 (c-KIT) was 0.51 µM, the IC50 (FGFR2) was > 25 µM and the IC50 (ABL2) was 4.36 µM. The IC50 (Raf-1) was > 25 µM.
